Experimental findings from patent US8871767B2, “2-arylimidazo[1,2-B]pyridazine, 2-phenylimidazo[1,2-A]pyridine, and 2-phenylimidazo[1,2-A]pyrazine derivatives” (Hengrui (USA) Ltd., priority 2010, dated 2014) are described below.

The structures appear in SMILES notation. pIC50: −log10 of the molar value. Where two headings read alike, the source gives them in different places.

Test [1] concerns Hedgehog pathway activation (GLi-luciferase reporter) in Shh Light II reporter cells. Description: Hedgehog pathway activation on Shh Light II reporter cells measured by luciferase activity. In kind it is cell-based. The note with it: Mus musculus, Shh Light II. In outline: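 Shh Light II reporter cells carrying a hedgehog-responsive GLi-luciferase reporter were stimulated either with 500 nM SAG, a direct Smoothened agonist, or with conditioned media containing human Sonic Hedgehog (hShh). Test compounds were evaluated for blocking this pathway activation, quantified by luciferase activity. Cell viability was monitored in parallel with the Celltiter-Blue® assay.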

Test [2] concerns Hedgehog pathway activation on 10T1/2/Smo#3 cells (C3H10T1/2 cells transfected with human Smoothened receptor). Put plainly: Hedgehog pathway activation on 10T1/2/Smo#3 cells measured by ALP activity. The note with it: Mus musculus, C3H 10T1/2, 10T1/2/Smo#3 cells. In kind it is cell-based. In outline: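 Inhibition of alkaline phosphatase induction, read fluorometrically from 4-methylumbelliferyl phosphate conversion, gave IC50 values; CellTiter-Blue tracked viability in parallel. Cells were the human Smo-transfected 10T1/2/Smo#3 pool, stimulated by 10-20% hShh conditioned medium or the Smo agonist SAG (500 nM).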

Setting [3] is: hShh activation, read-out: Shh (IC50, inhibition of Hedgehog pathway activation).
Setting [4] is: measured by ALP activity, read-out: ALP (IC50, inhibition of Hedgehog pathway activation).
Setting [5] is: SAG activation (500 nM SAG), read-out: Shh Light II luciferase activity (SAG activation).
Setting [6] is: hShh activation, read-out: Shh Light II luciferase activity (hShh activation).
Setting [7] is: hShh activation, ALP activity, read-out: 10T1/2/Smo#3 ALP activity (hShh Activation).

With `CC(O)COc1ccc2nc(-c3ccc(C(F)(F)F)c(NC(=O)C(C)(C)C)c3)cn2n1` (stereo not drawn) [Example 376, N-(5-(6-(2-hydroxypropoxy)imidazo[1,2-b]pyridazin-2-yl)-2-(trifluoromethyl)phenyl)pivalamide], the pIC50 in test [1] (setting [3]) is 6.21; in test [2] (setting [4]), 6.06.

Take `Cc1ccc(-c2cn3nc(-c4ccc(C(C)(C)O)cc4C(F)(F)F)ccc3n2)cc1NC(=O)C(C)(C)C` [compound 533]: the values for the pIC50 in test [1] (setting [3]) and in test [2] (setting [4]) were 6.52 and 6.35, respectively.

As to `COc1ccc2nc(-c3cc(NC(=O)C(C)(C)C)c(C)cc3Cl)cn2n1` [Example 132, N-(4-chloro-5-(6-methoxyimidazo[1,2-b]pyridazin-2-yl)-2-methylphenyl)pivalamide], the pIC50 was 5.83 in test [1] (setting [3]) and less than 5.00 in test [2] (setting [4]).

Take `Cc1ccc(-c2cn3nc(-c4ccc(C=CC(=O)NO)cc4)ccc3n2)cc1NC(=O)C(C)(C)C` [compound 560]: the pIC50 was 4.52 to 5.52 in test [1] (setting [5]); 6.40 in test [1] (setting [3]); more than 6.52 in test [1] (setting [6]); 5.52 to 6.52 in test [2] (setting [7]); 6.32 in test [2] (setting [4]).

Consider `CCOc1ccc2nc(-c3ccc(C(F)(F)F)c(NC(=O)CC(C)(C)C)c3)cn2n1` [Example 187, N-(5-(6-ethoxyimidazo[1,2-b]pyridazin-2-yl)-2-(trifluoromethyl)phenyl)-3,3-dimethylbutanamide], for which the pIC50 in test [1] (setting [3]) and in test [2] (setting [4]) was less than 5.00 each time.

As to `COc1ccc2nc(-c3ccc(C)c(NCc4ccc(F)cc4)c3)cn2n1` [Example 102, N-(4-fluorobenzyl)-5-(6-methoxyimidazo[1,2-b]pyridazin-2-yl)-2-methylaniline], the pIC50 in test [1] (setting [3]) is 5.04; in test [2] (setting [4]) it was 5.38.

Take `Cc1ccc(-c2cn3nc(-c4cccc(N(C)C)c4)ccc3n2)cc1NC(=O)C(C)(C)C` [Example 290, N-(5-(6-(3-(dimethylamino)phenyl)imidazo[1,2-b]pyridazin-2-yl)-2-methylphenyl)pivalamide]: the pIC50 in test [1] (setting [3]) was 6.49; in test [2] (setting [4]), 6.53.

As for `Cc1c(NC(=O)C(C)(C)C)cccc1-c1cn2nc(-c3ccccc3F)ccc2n1` [Example 219, N-(3-(6-(2-fluorophenyl)imidazo[1,2-b]pyridazin-2-yl)-2-methylphenyl)pivalamide], the pIC50 was 4.52 to 5.52 in test [1] (setting [5]); 5.90 in test [1] (setting [3]); 5.52 to 6.52 in test [1] (setting [6]); 5.52 to 6.52 in test [2] (setting [7]); 6.02 in test [2] (setting [4]).

In the case of `Cc1ccc(-c2cn3nc(N4CCC(O)CC4)ccc3n2)cc1NC(=O)C(C)(C)C` [Example 286, N-(5-(6-(4-hydroxypiperidin-1-yl)imidazo[1,2-b]pyridazin-2-yl)-2-methylphenyl)pivalamide], the pIC50 in test [1] (setting [3]) is 6.71; in test [2] (setting [4]) it was 6.90.

`CCN[C@@H]1CCN(c2ccc3nc(-c4ccc(C)c(NC(=O)C(C)(C)C)c4)cn3n2)C1` [Example 393, (R)-N-(5-(6-(3-(ethylamino)pyrrolidin-1-yl)imidazo[1,2-b]pyridazin-2-yl)-2-methylphenyl)pivalamide]: the pIC50 was 5.52 to 6.52 in test [1] (setting [5]); 7.51 in test [1] (setting [3]); more than 6.52 in test [1] (setting [6]); more than 6.52 in test [2] (setting [7]); 7.47 in test [2] (setting [4]).

Turning to `CNc1ccc2nc(-c3ccc(C(F)(F)F)c(NC(=O)C(C)(C)C)c3)cn2n1` [Example 137, N-(5-(6-(methylamino)imidazo[1,2-b]pyridazin-2-yl)-2-(trifluoromethyl)phenyl)pivalamide], the pIC50 in test [1] (setting [5]) was 5.52 to 6.52; in test [1] (setting [3]), 6.21; in test [1] (setting [6]), 5.52 to 6.52; in test [2] (setting [7]) it was 5.52 to 6.52; in test [2] (setting [4]), 6.00.

Take `Cc1ccc(-c2cn3nc(-c4cccc(C(=O)Nc5ccccc5N)c4)ccc3n2)cc1NC(=O)C(C)(C)C` [compound 598]: the pIC50 in test [1] (setting [3]) is 7.23; in test [2] (setting [4]), 6.37.

For the compound `O=C(Nc1cc(-c2cn3nc(-c4cccnc4C(F)(F)F)ccc3n2)ccc1Cl)C1CC1` [Example 676, N-(2-chloro-5-(6-(2-(trifluoromethyl)pyridin-3-yl)imidazo[1,2-b]pyridazin-2-yl)phenyl)cyclopropanecarboxamide], the pIC50 was 6.95 in test [1] (setting [3]) and 6.14 in test [2] (setting [4]).

For `COc1ccc2nc(-c3ccc(C)c(NC(=O)c4ccccc4)c3)cn2n1` [Example 97, N-(5-(6-methoxyimidazo[1,2-b]pyridazin-2-yl)-2-methylphenyl)benzamide], the pIC50 was 6.17 in test [1] (setting [3]) and 5.95 in test [2] (setting [4]).

Take `Cc1ccc(-c2cn3nc(-c4ccc(C(=O)O)cc4C(F)(F)F)ccc3n2)cc1NC(=O)C(C)(C)C` [Example 479, 4-(2-(4-methyl-3-pivalamidophenyl)imidazo[1,2-b]pyridazin-6-yl)-3-(trifluoromethyl)benzoic acid]: the pIC50 is more than 6.52 in test [1] (setting [5]); 8.22 in test [1] (setting [3]); more than 6.52 in test [1] (setting [6]); more than 6.52 in test [2] (setting [7]); 7.07 in test [2] (setting [4]).

`CCOc1ccc2nc(-c3ccc(C(F)(F)F)c(S(=O)(=O)NCc4ccccc4)c3)cn2n1` [Example 215, N-benzyl-5-(6-ethoxyimidazo[1,2-b]pyridazin-2-yl)-2-(trifluoromethyl)benzenesulfonamide]: the results for the pIC50 in test [1] (setting [3]) and in test [2] (setting [4]) were less than 5.00 and 5.51, respectively.

Take `COc1ccc2nc(-c3ccc(C)c(NC(=O)c4ccccc4C(F)(F)F)c3)cn2n1` [Example 99, N-(5-(6-methoxyimidazo[1,2-b]pyridazin-2-yl)-2-methylphenyl)-2-(trifluoromethyl)benzamide]: the pIC50 is less than 5.00 in test [1] (setting [3]) and 5.43 in test [2] (setting [4]).

Take `CC(C)(C)C(=O)Nc1cc(-c2cn3nc(N4CCC(F)(F)CC4)ccc3n2)ccc1C(F)(F)F` [Example 235, N-(5-(6-(4,4-difluoropiperidin-1-yl)imidazo[1,2-b]pyridazin-2-yl)-2-(trifluoromethyl)phenyl)pivalamide]: the pIC50 in test [1] (setting [5]) was 5.52 to 6.52; in test [1] (setting [3]) it was 6.50; in test [1] (setting [6]) it was more than 6.52; in test [2] (setting [7]), more than 6.52; in test [2] (setting [4]), 6.57.

`Cc1ccc(-c2cn3nc(NCc4ccc(C(=O)NOC5CCCCO5)cc4)ccc3n2)cc1NC(=O)C(C)(C)C` (stereo not drawn) [compound 600]: the pIC50 is 6.89 in test [1] (setting [3]) and less than 5.00 in test [2] (setting [4]).

With `CCc1ccc(-c2cn3nc(-c4cccnc4C(F)(F)F)ccc3n2)cc1NC(=O)CC(C)(C)C` [Example 691, N-(2-ethyl-5-(6-(2-(trifluoromethyl)pyridin-3-yl)imidazo[1,2-b]pyridazin-2-yl)phenyl)-3,3-dimethylbutanamide], the pIC50 is 6.34 in test [1] (setting [3]) and 5.91 in test [2] (setting [4]).

On to `Cc1c(-c2ccccc2)nc2ccc(N3CCN(C(=O)CCc4ccccc4)CC3)nn12` [Example 156, 1-(4-(3-methyl-2-phenylimidazo[1,2-b]pyridazin-6-yl)piperazin-1-yl)-3-phenylpropan-1-one], for which the results for the pIC50 in test [1] (setting [3]) and in test [2] (setting [4]) were 5.46 and 5.05, respectively.

For the compound `CCOC(=O)CCCCOc1ccc(C(F)(F)F)c(-c2ccc3nc(-c4ccc(C)c(NC(=O)C(C)(C)C)c4)cn3n2)c1` [Example 433, ethyl 5-(3-(2-(4-methyl-3-pivalamidophenyl)imidazo[1,2-b]pyridazin-6-yl)-4-(trifluoromethyl)phenoxy)pentanoate], the pIC50 in test [1] (setting [3]) is 6.71; in test [2] (setting [4]), 6.13.

For `CCc1ccc(-c2cn3nc(-c4ccccc4F)ccc3n2)cc1NC(=O)C(C)(C)C` [Example 295, N-(2-ethyl-5-(6-(2-fluorophenyl)imidazo[1,2-b]pyridazin-2-yl)phenyl)pivalamide], the pIC50 in test [1] (setting [5]) was 5.52 to 6.52; in test [1] (setting [3]), 6.49; in test [1] (setting [6]), more than 6.52; in test [2] (setting [7]), more than 6.52; in test [2] (setting [4]), 6.49.

Consider `COc1cnccc1-c1ccc2nc(-c3ccc(C(F)(F)F)c(NC(=O)C(C)(C)C)c3)cn2n1` [Example 382, N-(5-(6-(3-methoxypyridin-4-yl)imidazo[1,2-b]pyridazin-2-yl)-2-(trifluoromethyl)phenyl)pivalamide], for which the pIC50 in test [1] (setting [3]) is 5.91; in test [2] (setting [4]) it was 6.27.

Take `Cc1ccc(-c2cn3nc(-c4ccc(F)nc4F)ccc3n2)cc1NC(=O)C(C)(C)C` [Example 280, N-(5-(6-(2,6-difluoropyridin-3-yl)imidazo[1,2-b]pyridazin-2-yl)-2-methylphenyl)pivalamide]: the results for the pIC50 in test [1] (setting [3]) and in test [2] (setting [4]) were 6.32 and 6.63, respectively.

Turning to `CC1CN(C(=N)N)CCN1c1ccc2nc(-c3ccc(C(F)(F)F)c(NC(=O)C(C)(C)C)c3)cn2n1` (stereo not drawn) [compound 571], the pIC50 in test [1] (setting [3]) was 6.89; in test [2] (setting [4]) it was 6.26.

For the compound `CC(C)(C)C(=O)Nc1cc(-c2cn3nc(-c4ccccn4)ccc3n2)ccc1C(F)(F)F` [Example 141, N-(5-(6-(pyridin-2-yl)imidazo[1,2-b]pyridazin-2-yl)-2-(trifluoromethyl)phenyl)pivalamide], the pIC50 in test [1] (setting [5]) was more than 6.52; in test [1] (setting [3]), 6.59; in test [1] (setting [6]), more than 6.52; in test [2] (setting [7]), 4.52 to 5.52; in test [2] (setting [4]), 5.04.
